The assay has as its target T1, Prostaglandin G/H synthase 1 (Ovis aries, UniProt P05979).
T1 sequence (P05979 whole entry): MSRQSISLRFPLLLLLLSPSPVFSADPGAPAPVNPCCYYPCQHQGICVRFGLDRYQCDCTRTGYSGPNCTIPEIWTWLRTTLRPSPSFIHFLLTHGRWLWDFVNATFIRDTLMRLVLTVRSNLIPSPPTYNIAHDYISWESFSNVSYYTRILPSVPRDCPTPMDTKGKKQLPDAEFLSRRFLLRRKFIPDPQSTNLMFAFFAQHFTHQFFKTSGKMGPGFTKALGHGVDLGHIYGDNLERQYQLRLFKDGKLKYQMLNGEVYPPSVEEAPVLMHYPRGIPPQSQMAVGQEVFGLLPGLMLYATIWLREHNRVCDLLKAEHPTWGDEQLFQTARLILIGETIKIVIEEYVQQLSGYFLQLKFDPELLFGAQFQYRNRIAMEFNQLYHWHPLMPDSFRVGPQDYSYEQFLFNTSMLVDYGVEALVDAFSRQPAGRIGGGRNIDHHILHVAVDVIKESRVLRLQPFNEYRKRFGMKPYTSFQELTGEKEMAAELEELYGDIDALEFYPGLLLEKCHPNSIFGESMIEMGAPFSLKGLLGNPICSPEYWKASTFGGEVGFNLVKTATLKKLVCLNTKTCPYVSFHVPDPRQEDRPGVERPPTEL
Description: Inhibition of ovine COX1 by chemiluminescent assay

The IC50 is the midpoint of a concentration-inhibition curve. Lower therefore signals inhibition by little substance. On to `Cc1ccc(NC(=O)Nc2ccc(S(C)(=O)=O)cc2)cc1`, for which half-maximal inhibition (IC50) was put at 12.5 µM. This lies in the double-digit micromolar range.

On to `CS(=O)(=O)c1ccc(NC(=O)Nc2ccccc2)cc1`, for which the IC50 turned out to be 9.2 µM. Compound `COc1ccc(NC(=O)Nc2ccc(S(C)(=O)=O)cc2)cc1` registered an IC50 of 22.4 µM. The same measure for `CS(=O)(=O)c1ccc(NC(=O)Nc2ccc(F)cc2)cc1`: 21.8 µM. The same measure for `CS(=O)(=O)c1ccc(NC(=O)Nc2ccc(Cl)cc2)cc1`: 21.5 µM.

These data come from ChEMBL document CHEMBL1141483, “Design and synthesis of 1,3-diarylurea derivatives as selective cyclooxygenase (COX-2) inhibitors” (Bioorg Med Chem Lett, 2008).
